Measured values: patent US20090312396A1, “METHODS FOR CANCER TREATMENT USING TAK1 INHIBITORS” (AstraZeneca AB, priority 2006, published 2009)
Read-outs that look alike come from different tables or passages of the source.

Tests used:
TAK1 = biological target: T1, TAK1 (Homo sapiens, UniProt O43318); test: TAK1 enzyme inhibition; type: biochemical; settings: Table 4; read-out: TAK1 pIC50 (enzyme) (converted)
T1 sequence (O43318 1-606): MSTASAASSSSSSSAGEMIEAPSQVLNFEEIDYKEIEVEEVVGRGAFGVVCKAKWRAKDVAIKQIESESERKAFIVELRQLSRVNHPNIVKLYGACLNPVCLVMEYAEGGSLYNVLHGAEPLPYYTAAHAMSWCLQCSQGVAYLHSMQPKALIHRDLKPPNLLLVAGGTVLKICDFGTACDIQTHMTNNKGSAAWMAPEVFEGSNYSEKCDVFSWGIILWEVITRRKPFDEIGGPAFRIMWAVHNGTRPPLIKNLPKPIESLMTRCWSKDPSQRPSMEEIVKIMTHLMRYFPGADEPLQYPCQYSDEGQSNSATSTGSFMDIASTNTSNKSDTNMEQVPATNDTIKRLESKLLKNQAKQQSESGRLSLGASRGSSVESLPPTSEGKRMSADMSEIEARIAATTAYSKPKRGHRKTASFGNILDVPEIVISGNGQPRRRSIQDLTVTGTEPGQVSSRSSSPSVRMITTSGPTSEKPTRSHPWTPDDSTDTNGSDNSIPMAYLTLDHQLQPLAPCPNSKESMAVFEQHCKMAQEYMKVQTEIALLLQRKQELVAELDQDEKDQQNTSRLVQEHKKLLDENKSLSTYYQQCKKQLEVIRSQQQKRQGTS
T1 sequence (Q15750 1-504 partner): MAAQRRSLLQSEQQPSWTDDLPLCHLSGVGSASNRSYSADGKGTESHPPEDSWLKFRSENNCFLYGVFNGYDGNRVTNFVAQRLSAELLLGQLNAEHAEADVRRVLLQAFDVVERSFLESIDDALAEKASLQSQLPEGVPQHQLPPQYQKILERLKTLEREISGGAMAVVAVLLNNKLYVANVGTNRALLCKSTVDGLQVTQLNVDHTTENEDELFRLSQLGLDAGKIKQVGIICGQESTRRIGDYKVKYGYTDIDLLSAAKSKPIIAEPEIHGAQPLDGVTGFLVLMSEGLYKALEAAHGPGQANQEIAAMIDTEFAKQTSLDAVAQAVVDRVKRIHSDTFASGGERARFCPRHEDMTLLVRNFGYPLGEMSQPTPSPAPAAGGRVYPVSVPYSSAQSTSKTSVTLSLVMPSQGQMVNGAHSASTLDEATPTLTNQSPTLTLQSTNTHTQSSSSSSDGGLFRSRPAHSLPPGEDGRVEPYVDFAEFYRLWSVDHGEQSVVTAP

ARH77 = test: AlamarBlue proliferation assay, GI50; type: cell-based; settings: Homo sapiens, ARH-77, 72 hours
Experimental: (§1) The TAK1 inhibitors are known in the art (see for example, WO 2003010158, WO 2003010163 and WO2004063186 the disclosures of which are incorporated by reference herein). All cell lines were plated at 10,000 cells/well in flat-bottomed 96 well plates and dosed with test compounds in triplicate over a 10 point dosing range from 0 to 30 μmolesL^−1. All cell lines were incubated with test compounds for a total of 72 hours. Background levels were determined for a control (undosed) plate within 2 hours of dosing test compounds. Following the dosing period, the extent of proliferation was measured by adding 1/10 (vol/vol) AlamarBlue reagent to every well and incubating the plates for a further 4 hours. The reaction was stopped by the addition of SDS to a final concentration of 0.1%. Fluorescence was measured at 545 nm (excitation) and 600 nm (emission). Growth inhibition 50 (GI50) values were determined for each test compound across the panel.

DOHH2 = test: AlamarBlue proliferation assay, GI50; type: cell-based; settings: Homo sapiens, DOHH-2, 72 hours
Experimental: as §1

HEL92.1.7 = test: AlamarBlue proliferation assay, GI50; type: cell-based; settings: Homo sapiens, HEL 92.1.7, 72 hours, Table 4, read-out: GI50 HEL92.1.7 Erythroleukemia
Experimental: as §1

Jurkat = test: AlamarBlue proliferation assay, GI50; type: cell-based; settings: Homo sapiens, 72 hours, Table 4, read-out: GI50 Jurkat T-ALL
Experimental: as §1

KG1a = test: AlamarBlue proliferation assay, GI50; type: cell-based; settings: Homo sapiens, KG-1a, 72 hours, Table 4, read-out: GI50 KG1a AML
Experimental: as §1

Karpas231 = test: AlamarBlue proliferation assay, GI50; type: cell-based; settings: Homo sapiens, 72 hours
Experimental: as §1

MEC1 = test: AlamarBlue proliferation assay, GI50; type: cell-based; settings: Homo sapiens, 72 hours
Experimental: as §1

OCI-LY19 = test: AlamarBlue proliferation assay, GI50; type: cell-based; settings: Homo sapiens, 72 hours
Experimental: as §1

SUDHL4 = test: AlamarBlue proliferation assay, GI50; type: cell-based; settings: Homo sapiens, SU-DHL-4, 72 hours
Experimental: as §1

WSU-NHL = test: AlamarBlue proliferation assay, GI50; type: cell-based; settings: Homo sapiens, 72 hours, Table 4, read-out: GI50 WSU-NHL B-NHL
Experimental: as §1

Raji = test: AlamarBlue proliferation assay, GI50; type: cell-based, human; settings: Homo sapiens, Raji, 72 hours, Table 4, read-out: GI50 Raji Burkitts Lymphoma
Experimental: as §1

AM0-1 = test: AlamarBlue proliferation assay, GI50; type: cell-based; settings: Homo sapiens, 72 hours, Table 8, read-out: GI50 AM0-1 plasmacytoma
Experimental: as §1
(§2) The experiments to generate the results for both Tables 5 and 6 were performed as described above.

IM-9 = test: AlamarBlue proliferation assay, GI50; type: cell-based; settings: Homo sapiens, 72 hours, Table 8, read-out: GI50 IM-9 B lymphoblastoid
Experimental: as §1, §2

JEKO-1 = test: AlamarBlue proliferation assay, GI50; type: cell-based; settings: Homo sapiens, 72 hours, Table 7, read-out: GI50 JEKO-1 MCL
Experimental: as §1, §2

JJN-3 = test: AlamarBlue proliferation assay, GI50; type: cell-based; settings: Homo sapiens, 72 hours, Table 8, read-out: GI50 JJN-3 plasma cell leukemia
Experimental: as §1, §2

JVM-3 = test: AlamarBlue proliferation assay, GI50; type: cell-based; settings: Homo sapiens, 72 hours, Table 7, read-out: GI50 JVM-3 B-PLL
Experimental: as §1, §2

L-363 = test: AlamarBlue proliferation assay, GI50; type: cell-based; settings: Homo sapiens, 72 hours, Table 8, read-out: GI50 L-363 plasma cell leukemia
Experimental: as §1, §2

MOLP-8 = test: AlamarBlue proliferation assay, GI50; type: cell-based; settings: Homo sapiens, 72 hours, Table 8, read-out: GI50 MOLP-8 Multiple myeloma
Experimental: as §1, §2

RPMI-8226 = test: AlamarBlue proliferation assay, GI50; type: cell-based; settings: Homo sapiens, 72 hours, Table 8, read-out: GI50 RPMI-8226 M.M
Experimental: as §1, §2

WSU DLCL2 = test: AlamarBlue proliferation assay, GI50; type: cell-based; settings: Homo sapiens, WSUDLCL2, 72 hours, Table 7, read-out: GI50 WSU-DLCL B cell lymphoma
Experimental: as §1, §2

[1] = test system: Lymphoma cell lines carrying the t(14;18) chromosomal translocation; test: AlamarBlue proliferation assay, Example 2; type: cell-based; settings: t(14;18) lymphoma cell lines, 72 hours, 0 to 30 μmoles/L, FIG. 3
Experimental: The chemical name of the compound is 3-[(aminocarbonyl)amino]-5-(4-{[4-(2-methoxyethyl)piperazin-1-yl]methyl}phenyl)thiophene-2-carboxamide.
More specifically, cell lines (OCI-LY19, DOHH2, Karpas231, WSU-NHL and SUDHL4 carry the t(14;18) translocation) were plated at 10,000 cells/well in flat-bottomed 96 well plates and dosed with test compounds in triplicate over a 10 point dosing range from 0 to 30 μmolesL^−1. All cell lines were incubated with test compounds for a total of 72 hours. Background levels were determined for a control (undosed) plate within 2 hours of dosing test compounds. Following the dosing period, the extent of proliferation was measured by adding 1/10 (vol/vol) AlamarBlue reagent to every well and incubating the plates for a further 4 hours. The reaction was stopped by the addition of SDS to a final concentration of 0.1%. Fluorescence was measured at 545 nm (excitation) and 600 nm (emission). GI50 values were determined for each test compound across the panel.

[2] = Table 4, read-out: GI50 ARH77 Plasma cell leukemia
[3] = Table 4, read-out: GI50 DOHH2 FL
[4] = Table 4, read-out: GI50 Karpas231 B-ALL
[5] = Table 4, read-out: GI50 MEC1 B-CLL
[6] = Table 4, read-out: GI50 OCI-LY19 DLBCL
[7] = Table 4, read-out: GI50 SUDHL4 DLBCL

IC50 (TAK1) | GI50 (Jurkat) | GI50 (Karpas231; [4]) | GI50 (OCI-LY19; [6]) | GI50 (SUDHL4; [7]) | GI50 (Raji) | Structure (SMILES) | GI50 (ARH77; [2]) | GI50 (DOHH2; [3]) | GI50 (HEL92.1.7) | GI50 (KG1a) | GI50 (MEC1; [5]) | GI50 (WSU-NHL) | further results
126 nM | 15.9 µM | 300 nM | 124 nM | 6390 nM | 15.2 µM | NC(=O)Nc1sc(-c2ccc(CN3CCOCC3)cc2)cc1C(N)=O [Compound 1, 2-[(aminocarbonyl)amino]-5-[4-(morpholin-4-ylmethyl)phenyl]thiophene-3-carboxamide] | 1170 nM | 127 nM | 730 nM | 450 nM | 1340 nM | 370 nM | –
50.1 nM | 4.39 µM | 140 nM | 5 nM | 2420 nM | 3.5 µM | CC(c1ccc(-c2cc(C(N)=O)c(NC(N)=O)s2)cc1)N1CCCCC1 (stereo not shown) [Compound 2, 2-[(aminocarbonyl)amino]-5-[4-(1-piperidin-1-ylethyl)phenyl]thiophene-3-carboxamide] | 250 nM | 14 nM | 170 nM | 400 nM | 160 nM | 250 nM | –
– | – | – | – | – | – | COc1cc(O)c2c(c1)/C=C/C[C@H](O)[C@H](O)C(=O)/C=C\C[C@H](C)OC2=O [LL-Z-1640-2, (3S,5Z,8S,9S,11E)-8,9,16-trihydroxy-14-methoxy-3-methyl-3,4,9,10-tetrahydro-1H-2-benzoxacyclotetradecine-1,7(8H)-dione, reference compound] | – | – | – | – | – | – | GI50 (ARH77; Table 8, read-out: GI50 ARH-77 plasma cell leukemia): 1240 nM; GI50 (DOHH2; Table 7, read-out: GI50 DOHH2 FL): 390 nM; GI50 (Karpas231; Table 7, read-out: GI50 KARPAS231 B-ALL): 950 nM; GI50 (MEC1; Table 7, read-out: GI50 MEC1 B-CLL): 730 nM; GI50 (OCI-LY19; Table 7, read-out: GI50 OCI-LY19 DLBCL): 230 nM; GI50 (SUDHL4; Table 7, read-out: GI50 SUDHL4 DLBCL): 1640 nM; GI50 (AM0-1): 570 nM; GI50 (IM-9): 20 nM; GI50 (JEKO-1): 70 nM; GI50 (JJN-3): ≥ 32.4 µM; GI50 (JVM-3): 710 nM; GI50 (L-363): ≥ 32.4 µM; GI50 (MOLP-8): 10.4 µM; GI50 (RPMI-8226): 1410 nM; GI50 (WSU DLCL2): 20 nM
– | – | – | – | – | – | COCCN1CCN(Cc2ccc(-c3cc(NC(N)=O)c(C(N)=O)s3)cc2)CC1 [TAK1 inhibitor, 3-[(aminocarbonyl)amino]-5-(4-{[4-(2-methoxyethyl)piperazin-1-yl]methyl}phenyl)thiophene-2-carboxamide] | – | – | – | – | – | – | sensitivity of cell lines to TAK1 inhibitor [1]: sensitive
100 nM | > 30 µM | 160 nM | 85 nM | 2720 nM | > 30 µM | NC(=O)Nc1cc(-c2ccc(CN3CCOCC3)cc2)sc1C(N)=O [Compound 3, 3-[(aminocarbonyl)amino]-5-[4-(morpholin-4-ylmethyl)phenyl]thiophene-2-carboxamide] | 480 nM | 175 nM | 500 nM | 430 nM | 630 nM | 420 nM | –
